Experimental data published in ChEMBL document CHEMBL1201862, “PubChem BioAssay data set” (2004).
The source made the active and inactive calls.

Experiments:
[1] = viability loss in A549 lung cells – cell-based, 24 h, CellTiter-Glo luminescence, cherry-picks, cytotoxicity control, dose response (AID 1053115); type: functional; settings: A549, 24 h
[2] = lung carcinoma cell viability loss – CellTiter-Glo luminescence, dry powder, set 17, dose response (AID 1117284); type: functional, cell-based; settings: A549
[3] = liver cell line viability loss – HepG2, luminescence plate reader, powder samples, set 2, cytotoxicity control, dose response (AID 651860); type: functional, cell-based
[4] = Late-stage results from the probe development effort to identify antagonists of arginine vasopressin receptor 1a (AVPR1a): fluorescence-based cell-based dose response AVPR1a inhibition assay.; type: functional
[5] = target: Vasopressin V1b receptor (Homo sapiens, UniProt P47901); test: Late-stage results from the probe development effort to identify antagonists of arginine vasopressin receptor 1a (AVPR1a): fluorescence-based cell-based dose response AVPR1b inhibition counterscreen assay.; type: functional
Sequence of Vasopressin V1b receptor (P47901 whole entry): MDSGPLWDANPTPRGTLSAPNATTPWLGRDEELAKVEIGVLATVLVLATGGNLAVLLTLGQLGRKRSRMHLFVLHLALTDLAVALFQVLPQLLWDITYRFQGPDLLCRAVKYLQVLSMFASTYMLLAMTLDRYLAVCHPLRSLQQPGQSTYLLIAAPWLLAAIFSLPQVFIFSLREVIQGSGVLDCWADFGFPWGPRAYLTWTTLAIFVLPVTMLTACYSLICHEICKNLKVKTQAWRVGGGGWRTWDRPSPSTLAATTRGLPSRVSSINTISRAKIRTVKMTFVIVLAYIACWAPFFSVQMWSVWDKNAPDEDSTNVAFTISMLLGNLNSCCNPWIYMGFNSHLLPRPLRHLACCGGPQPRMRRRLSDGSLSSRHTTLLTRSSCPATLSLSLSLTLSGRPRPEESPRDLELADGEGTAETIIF

[6] = target: Vasopressin V2 receptor (Homo sapiens, UniProt P30518); test: Late-stage results from the probe development effort to identify antagonists of arginine vasopressin receptor 1a (AVPR1a): fluorescence-based cell-based dose response AVPR2 inhibition counterscreen assay.; type: functional
Sequence of Vasopressin V2 receptor (P30518 whole entry): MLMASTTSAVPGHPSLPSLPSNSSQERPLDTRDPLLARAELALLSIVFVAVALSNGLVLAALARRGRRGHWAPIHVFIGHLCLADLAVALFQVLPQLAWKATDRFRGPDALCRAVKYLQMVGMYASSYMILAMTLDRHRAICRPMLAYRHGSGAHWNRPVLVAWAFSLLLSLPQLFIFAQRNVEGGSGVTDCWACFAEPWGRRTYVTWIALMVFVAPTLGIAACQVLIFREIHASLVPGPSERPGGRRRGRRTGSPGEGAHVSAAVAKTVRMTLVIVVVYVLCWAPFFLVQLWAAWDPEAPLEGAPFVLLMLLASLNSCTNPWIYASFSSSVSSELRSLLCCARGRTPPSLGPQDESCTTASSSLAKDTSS

[7] = Late-stage results from the probe development effort to identify antagonists of arginine vasopressin receptor 1a (AVPR1a): fluorescence-based cell-based dose response OXTR inhibition counterscreen assay.; type: functional
[8] = YAP1 overexpression rescue of CTGF inhibition – DLD1 cells, RT-qPCR, cherry-pick, mechanism study for YAP1 pathway inhibitor project, dose response (AID 1053127); type: functional, cell-based; settings: DLD-1
[9] = CTGF mRNA reduction in DLD1 cells – cell-based, DLD1 colon cancer, RT-qPCR, cherry-pick, dose response (AID 1053122); type: functional; settings: Cancer cell lines
[10] = Dd2 parasite growth inhibition in erythrocytes – SYBR Green, dry powder samples, set 9, dose response (AID 1159568); type: functional, cell-based
[11] = toxicity to A549 lung cells – cell-based, plate reader, dry powder, set 6, cytotoxicity control, dose response (AID 743312); type: functional
[12] = cells; settings: HEK293
[13] = BioA aminotransferase inhibition, coupled fluorescent readout – biochemical, coupled fluorescence displacement, 20-point, dry powder, dose response (AID 743357); type: functional
[14] = RKO cell viability reduction, dose response, CellTiter-Glo luminescence (AID 1117322); type: functional
[15] = cytotoxicity toward HCT116 cells – cell-based, CellTiter-Glo luminescence, IC50, dose response (AID 1117332); type: functional; settings: HCT-116
[16] = SNU-C1 cell viability reduction, dose response, CellTiter-Glo luminescence (AID 1117323); type: functional, cell-based
[17] = cytotoxicity toward Colo320 cells – cell-based, CellTiter-Glo luminescence, IC50, dose response (AID 1117334); type: functional; settings: COLO 320
[18] = cytotoxicity toward HT-29 cells – cell-based, CellTiter-Glo luminescence, IC50, dose response (AID 1117330); type: functional
[19] = Reduced DLD-1 viability, concentration-response, CellTiter-Glo luminescence (AID 1117352); type: functional
[20] = HCT116 cell viability decrease, GSK3B pretreatment – CellTiter-Glo, IC50, dose response (AID 1117339); type: functional; settings: HCT-116

Question: With C[C@H](CO)N1C[C@H](C)[C@@H](CN(C)Cc2ccc(-c3ccccc3)cc2)Oc2cc(C#C[C@@H](C)O)ccc2S1(=O)=O as the compound, how does the AC50 [1] read?
Answer: Its AC50 is 52.6 µM (active).

Question: What about the AC50 [2] of the same compound?
Answer: The AC50 was 42.5 µM (active).

Question: With Cc1cc(C)c(S(=O)(=O)Nc2cc(C(C(=O)OC(C)C)C(=O)C(F)(F)F)c(O)c3ccccc23)c(C)c1 (stereo not given) as the compound, how does the AC50 [3] read?
Answer: Its AC50 is > 52 µM (inactive).

Question: Which results are given for Cc1ccccc1N1CCN(C(=O)N(CC2CC2)c2ccc(Cl)cc2)CC1?
Answer: IC50 [4]: 0.0027 µM (active); IC50 [5]: 12.8 µM (inactive); IC50 [6]: 1.02 µM (active); IC50 [7]: 0.046 µM (active)

Question: With COc1cccc(-c2ccc([C@H]3[C@H]4CN(C(=O)Cc5ccncc5)CCCCN4[C@H]3CO)cc2)c1 as the compound, how does the AC50 [8] read?
Answer: The AC50 was 9.34 µM (active).

Question: What about the AC50 [9] of the same compound?
Answer: The AC50 was 2.79 µM (active).

Question: Which AC50 [10] does the source give for C[C@@H]1CCCCO[C@H](CN(C)S(=O)(=O)c2ccc(F)cc2)[C@@H](C)CN([C@H](C)CO)C(=O)c2cc(N(C)C)ccc2O1 here?
Answer: The AC50 was 11.4 µM (active).

Question: Which results are given for Cc1ccc(C(C)C)c(OCCn2c(=O)[nH]c3ccccc32)c1?
Answer: AC50 [11]: 23.1 µM (active); AC50 [12]: 32.4 µM (active)

Question: Which AC50 [13] does the source give for CN(C)C(=O)c1ccc(N2CCN(C(=O)c3ccc4c(c3)OCO4)CC2)cc1 here?
Answer: The AC50 was 14 µM (active).

Question: With Cc1ccc2c(Br)cc(Br)c(O)c2n1 [BROQUINALDOL] as the compound, how does the IC50 [14] read?
Answer: Its IC50 is 0.311 µM (active).

Question: And the IC50 [15]?
Answer: Its IC50 is 1.16 µM (active).

Question: And the IC50 [16]?
Answer: The IC50 was 12.8 µM (inactive).

Question: What about the IC50 [17] of the same compound?
Answer: Its IC50 is 0.001 µM (active).

Question: And the IC50 [18]?
Answer: Its IC50 is > 6.67 µM (inactive).

Question: And the IC50 [19]?
Answer: The IC50 was 4.77 µM (active).

Question: What about the IC50 [20] of the same compound?
Answer: Its IC50 is 1.03 µM (active).
